From ChEMBL document CHEMBL4364325, “Synthesis, pharmacological and structural studies of 5-substituted-3-(1-arylmethyl-1,2,3,6-tetrahydropyridin-4-yl)-1H-indoles as multi-target ligands of aminergic GPCRs” (Eur J Med Chem, 2019) come the findings set out here.

Activity calls are given as the source filed them. The rule behind the calls is not given here.

Data set [1] addresses T1, 5-hydroxytryptamine receptor 2A (Homo sapiens, UniProt P28223). In words: Displacement of [3H]ketanserin from human 5HT2A receptor expressed in HEK293 cell membranes at 10 uM measured after 30 mins relative to control. (In general: In a radioligand displacement assay an active substance lowers the binding of a labelled ligand.)
For data set [2], the target named is T2, 5-hydroxytryptamine receptor 1A (Homo sapiens, UniProt P08908).
T2 sequence (P08908 whole entry): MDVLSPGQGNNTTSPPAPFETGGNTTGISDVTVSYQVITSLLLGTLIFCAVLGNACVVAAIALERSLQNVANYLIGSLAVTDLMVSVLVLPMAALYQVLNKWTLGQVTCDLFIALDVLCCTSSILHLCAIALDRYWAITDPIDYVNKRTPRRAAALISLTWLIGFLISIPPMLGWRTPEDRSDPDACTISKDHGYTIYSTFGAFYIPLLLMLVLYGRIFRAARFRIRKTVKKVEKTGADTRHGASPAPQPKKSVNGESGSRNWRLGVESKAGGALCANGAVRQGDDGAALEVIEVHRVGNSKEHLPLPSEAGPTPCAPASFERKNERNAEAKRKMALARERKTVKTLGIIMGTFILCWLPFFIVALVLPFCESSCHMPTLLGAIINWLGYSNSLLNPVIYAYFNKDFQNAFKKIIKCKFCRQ
In words: Displacement of [3H]8-OH-DPAT from human 5HT1A receptor expressed in HEK293 cell membranes measured after 120 mins.

The target in data set [3] is T3, D(2) dopamine receptor (Homo sapiens, UniProt P14416). In words: Displacement of [3H]Spiperone from human D2S receptor expressed in CHOK1 cell membranes measured after 120 mins.
T3 sequence (P14416 whole entry): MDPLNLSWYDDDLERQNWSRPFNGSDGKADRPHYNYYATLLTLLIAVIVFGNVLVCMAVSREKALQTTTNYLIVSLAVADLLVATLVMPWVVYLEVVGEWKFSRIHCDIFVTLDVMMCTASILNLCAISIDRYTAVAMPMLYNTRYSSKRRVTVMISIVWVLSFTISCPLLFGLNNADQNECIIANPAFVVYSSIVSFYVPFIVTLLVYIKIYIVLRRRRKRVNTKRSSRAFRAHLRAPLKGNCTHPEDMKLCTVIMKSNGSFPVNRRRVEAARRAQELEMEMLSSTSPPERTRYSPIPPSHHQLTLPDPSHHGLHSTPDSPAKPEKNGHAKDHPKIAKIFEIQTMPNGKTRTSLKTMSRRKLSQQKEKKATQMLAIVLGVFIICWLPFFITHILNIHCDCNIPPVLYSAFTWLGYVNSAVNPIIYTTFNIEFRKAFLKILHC
Data set [4] addresses T1, 5-hydroxytryptamine receptor 2A. In words: Displacement of [3H]ketanserin from human 5HT2A receptor expressed in HEK293 cell membranes measured after 30 mins. The data set is classed as cell-based.
The species named for data set [5] is Homo sapiens. As to the kind of experiment: Selectivity ratio of Kb for human 5HT2A receptor expressed in CHOK1 cells to Kb for human D2S receptor expressed in CHOK1 cells. The data set is classed as cell-based.
In data set [6] the target is T1, 5-hydroxytryptamine receptor 2A. As to the kind of experiment: Antagonist activity at human 5HT2A receptor expressed in CHOK1 cells assessed as inhibition of inositol phosphate production incubated for 24 hrs followed by 5-HT addition by Cheng-Prusoff equation analysis. The data set is classed as functional, cell-based.
A short description of data set [7]: Toxicity in Swiss mouse assessed as induction of motor coordination impairments at 50 mg/kg, ip measured after 60 mins by chimney test. The data set is classed as organism-based. The following applies: in vivo, 1 h.
In data set [8] the target is T3, D(2) dopamine receptor. As to the kind of experiment: Agonist activity at human D2 receptor expressed in CHOK1 cells assessed as inhibition of forskolin induced cAMP production at 0.1 nM to 100 uM incubated for 10 mins followed by forskolin addition and measured after 5 mins by HTRF assay. The data set is classed as functional, cell-based. For orientation: Changes in cAMP serve as a functional read-out for many G protein-coupled receptors.

Data set [9] has as its target T4, 5-hydroxytryptamine receptor 1A (Homo sapiens) (UniProt P08908).
T4 sequence (whole entry): T2 sequence (P08908 whole entry)
In words: Agonist activity at human 5HT1A receptor expressed in HEK293 cell membranes assessed as maximal inhibition of forskolin induced cAMP production incubated for 24 hrs followed by forskolin addition by HTRF assay relative to control. The data set is classed as functional, cell-based.

Data set [10] concerns the target T3, D(2) dopamine receptor. In words: Competitive antagonist activity at human D2S receptor expressed in CHOK1 cells assessed as quinpirole mediated inhibition of forskolin induced cAMP accumulation by measuring parallel rightward shifts of quinpirole concentration-response curves incubated for 10 mins by HTRF assay based Schild plot analysis. The data set is classed as functional, cell-based.

For data set [11], the target named is T3, D(2) dopamine receptor. As to the kind of experiment: Antagonist activity at human D2S receptor expressed in CHOK1 cells assessed as suppression of dopamine-induced inhibition of forskolin-stimulated cAMP accumulation preincubated for 5 mins followed by dopamine and forskolin addition and measured after 10 mins by HTRF assay. The data set is classed as functional, cell-based.

Data set [12] relates to Mus musculus. In words: Antipsychotic activity in Swiss mouse assessed as decrease in amphetamine-induced hyperlocomotion at 50 mg/kg, ip pretreated for 60 mins followed by amphetamine administration and measured for 30 mins. The data set is classed as functional, organism-based.
The subject of data set [13] is Mus musculus. As to the kind of experiment: Antidepressant activity in Swiss mouse assessed as decrease in immobility time at 50 mg/kg, ip as acute administration measured during last 4 mins for 6 mins by forced swim test. The data set is classed as functional, organism-based.
Data set [14] relates to Mus musculus. As to the kind of experiment: Antidepressant activity in Swiss mouse assessed as increase in latency time at 50 mg/kg, ip as acute administration measured during last 4 mins for 6 mins by forced swim test. The data set is classed as functional, organism-based.
Data set [15] deals with Mus musculus. In words: Cognition enhancing effect in Swiss mouse assessed as increase in latency index at 50 mg/kg, ip as acute administration measured after 24 hrs by passive avoidance test. The data set is classed as functional, organism-based.
Data set [16] concerns the target T1, 5-hydroxytryptamine receptor 2A. The data set is classed as functional, cell-based.
Description: Antagonist activity at human 5HT2A receptor expressed in CHOK1 cells assessed as inhibition of 5-HT induced inositol phosphate production incubated for 24 hrs followed by 5-HT addition by HTRF assay
In data set [17] the target is T3, D(2) dopamine receptor. As to the kind of experiment: Displacement of [3H]Spiperone from human D2S receptor expressed in CHOK1 cell membranes at 10 uM measured after 120 mins relative to control.
Data set [18] concerns the target T3, D(2) dopamine receptor. As to the kind of experiment: Displacement of [3H]Spiperone from human D2S receptor expressed in CHO cell membranes.
The target in data set [19] is D(3) dopamine receptor (Homo sapiens, UniProt P35462). As to the kind of experiment: Displacement of [3H]Spiperone from human D3 receptor expressed in commercial cell membranes.
Chain of D(3) dopamine receptor (P35462 whole entry): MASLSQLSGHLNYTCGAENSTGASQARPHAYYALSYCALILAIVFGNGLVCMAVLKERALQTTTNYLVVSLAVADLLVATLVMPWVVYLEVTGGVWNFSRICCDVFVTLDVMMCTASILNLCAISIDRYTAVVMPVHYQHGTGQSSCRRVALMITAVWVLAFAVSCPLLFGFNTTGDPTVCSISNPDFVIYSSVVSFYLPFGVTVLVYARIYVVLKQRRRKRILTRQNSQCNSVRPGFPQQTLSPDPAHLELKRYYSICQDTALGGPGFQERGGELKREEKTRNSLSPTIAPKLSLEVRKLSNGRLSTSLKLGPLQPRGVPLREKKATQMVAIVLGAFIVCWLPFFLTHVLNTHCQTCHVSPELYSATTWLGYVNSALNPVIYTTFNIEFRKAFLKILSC
For data set [20], the target named is T2, 5-hydroxytryptamine receptor 1A. In words: Displacement of [3H]8-OH-DPAT from human 5HT1A receptor expressed in HEK293 cell membranes.
Data set [21] concerns the target T1, 5-hydroxytryptamine receptor 2A. As to the kind of experiment: Displacement of [3H]ketanserin from human 5HT2A receptor expressed in CHO cell membranes.
Data set [22] deals with D(1A) dopamine receptor (Homo sapiens, UniProt P21728). In words: Displacement of [3H]SCH23390 from human D1 receptor expressed in commercial cell membranes.
Chain of D(1A) dopamine receptor (P21728 whole entry): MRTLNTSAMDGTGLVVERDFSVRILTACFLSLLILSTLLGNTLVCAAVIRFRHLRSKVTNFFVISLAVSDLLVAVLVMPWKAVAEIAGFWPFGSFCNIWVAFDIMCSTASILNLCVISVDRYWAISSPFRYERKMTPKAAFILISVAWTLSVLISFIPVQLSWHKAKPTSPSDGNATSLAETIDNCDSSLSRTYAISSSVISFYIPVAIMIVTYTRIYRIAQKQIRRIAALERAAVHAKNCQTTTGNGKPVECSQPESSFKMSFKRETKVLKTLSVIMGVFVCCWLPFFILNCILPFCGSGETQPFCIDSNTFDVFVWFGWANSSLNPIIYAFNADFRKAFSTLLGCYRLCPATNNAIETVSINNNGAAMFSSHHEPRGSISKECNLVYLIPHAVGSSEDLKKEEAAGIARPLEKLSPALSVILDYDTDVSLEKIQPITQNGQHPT

T1 sequence (P28223 whole entry): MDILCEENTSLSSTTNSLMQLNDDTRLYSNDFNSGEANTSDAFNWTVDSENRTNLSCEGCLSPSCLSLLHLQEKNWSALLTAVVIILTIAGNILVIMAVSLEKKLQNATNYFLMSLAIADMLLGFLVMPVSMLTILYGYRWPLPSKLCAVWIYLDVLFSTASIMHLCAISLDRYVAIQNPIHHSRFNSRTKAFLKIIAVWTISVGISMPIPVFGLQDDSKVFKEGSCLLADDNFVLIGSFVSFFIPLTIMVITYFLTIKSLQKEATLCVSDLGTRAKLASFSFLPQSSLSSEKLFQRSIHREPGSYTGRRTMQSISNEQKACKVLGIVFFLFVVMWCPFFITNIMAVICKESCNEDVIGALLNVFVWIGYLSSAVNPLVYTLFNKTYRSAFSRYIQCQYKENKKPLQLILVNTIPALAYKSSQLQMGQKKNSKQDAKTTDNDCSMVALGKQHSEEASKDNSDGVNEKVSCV

Regarding `COc1ccc2[nH]cc(C3=CCN(Cc4ccccc4)CC3)c2c1`, the inhibition (as a rule, the percentage by which the read-out fell short of the control) in [1] stood at 41%. For the same compound, the Ki (in general, a dissociation constant, usually derived from enzyme kinetics or from competition with a known ligand) amounted to 139 nM in data set [2] and 62.7 nM in data set [3].
As for `COc1ccc2[nH]cc(C3=CCN(Cc4cccs4)CC3)c2c1`, the Ki was 1890 nM in data set [4], 157 nM in data set [2] and 141 nM in data set [3].
For the compound `C1=C(c2c[nH]c3ccccc23)CCN(Cc2cccs2)C1`, in data set [5], the Selectivity ratio turned out to be 50. The Kb (as a rule, the equilibrium dissociation constant of an antagonist, usually derived from a functional assay) was 238 nM in data set [6] and 5.06 nM in data set [10]. The Ki in [4] amounted to 171 nM; in data set [2] it was 305 nM; in [3] it was 71.9 nM. Also, the values for the Activity entry in data set [7], in data set [10] and in data set [11] were “Non-Toxic”, “Dose-dependent effect” and “Dose-dependent effect”, respectively. The outcome in data set [8] was inactive. Moreover, the Emax (as a rule, the maximal effect, on the per cent scale that the assay sets) in [9] was 67%. Besides, the pKb (as a rule, the Kb on a negative log10 scale, so that one unit is a factor of ten) in data set [10] was determined as 8.3. In addition, the outcome in data set [12], in data set [13], in data set [14] and in data set [15] was Active. In addition, inhibition in data set [16] was half-maximal at 2410 nM (IC50).
Turning to `COc1ccc(CN2CC=C(c3c[nH]c4ccc(OC)cc34)CC2)cc1`, the inhibition in data set [1] stood at 48%. Moreover, the Ki in [2] was found to be 134 nM; in data set [3] it was 148 nM.
Consider `CCOc1ccc2[nH]cc(C3=CCN(Cc4ccccc4)CC3)c2c1`, for which the Ki is 2100 nM in [4] and 220 nM in data set [2].
Take `C1=C(c2c[nH]c3ccccc23)CCN(Cc2ccccc2)C1`: in [5], the Selectivity ratio turned out to be 80. Besides, the Kb in data set [6] was determined as 279 nM; in [10] it was 3.51 nM. The Ki amounted to 125 nM in data set [4], 354 nM in [2] and 25.8 nM in [3]. Moreover, the result in [8] was inactive. Further, in data set [9], the Emax came out at 89%. For the same compound, the Activity entry in [10] and in [11] was “Dose-dependent effect” each time. In addition, in data set [10], the pKb was found to be 8.45. Besides, 2620 nM corresponded to half-maximal inhibition in data set [16] (IC50).
For `CC(C)Oc1ccc2[nH]cc(C3=CCN(Cc4cccs4)CC3)c2c1`, the inhibition in [1] came to 14%. Besides, the results for the Ki in data set [2] and in data set [3] were 214 nM and 465 nM, respectively.
Regarding `NCCc1c[nH]c2ccc(C(N)=O)cc12`, the Emax in [9] was 95%.
In data set [1], `COc1cccc(CN2CC=C(c3c[nH]c4ccc(OC)cc34)CC2)c1` showed an inhibition of 24%. Besides, the Ki in data set [2] came to 135 nM; in data set [3] it was 112 nM.
Taken in the same sequence, the figures for `COc1cccc(CN2CC=C(c3c[nH]c4ccc(OC(C)C)cc34)CC2)c1` were 43%, 290 nM and 299 nM.
Compound `COc1ccc(CN2CC=C(c3c[nH]c4ccccc34)CC2)cc1` showed an inhibition in data set [1] of 52%. The Ki in data set [2] is 243 nM; in data set [3], 87.3 nM.
For `CCOc1ccc2[nH]cc(C3=CCN(Cc4cccc(OC)c4)CC3)c2c1`, the inhibition in data set [1] is 3%. Further, the Ki in data set [2] is 160 nM; in data set [3], 108 nM.
As for `CCOc1ccc2[nH]cc(C3=CCN(Cc4ccco4)CC3)c2c1`, the inhibition stood at 62% in [17] and 47% in data set [1]. The compound also registered a Ki in data set [2] of 486 nM.
As for `COc1ccc2[nH]cc(C3=CCN(Cc4ccco4)CC3)c2c1`, in data set [1], the inhibition was found to be 15%. In addition, the Ki in data set [2] was 195 nM; in data set [3] it was 142 nM.
Taken in the same sequence, the figures for `CCOc1ccc2[nH]cc(C3=CCN(Cc4cccs4)CC3)c2c1` were 0%, 139 nM and 166 nM.
Taken in the same sequence, the figures for `COc1ccc(CN2CC=C(c3c[nH]c4ccc(OC(C)C)cc34)CC2)cc1` were 36%, 378 nM and 165 nM.
Regarding `C1=C(c2c[nH]c3ccccc23)CCN(Cc2ccco2)C1`, the Ki in data set [4] turned out to be 173 nM; in data set [2], 752 nM; in [3], 257 nM.
Regarding `CC(C)Oc1ccc2[nH]cc(C3=CCN(Cc4ccco4)CC3)c2c1`, the inhibition in data set [17] was 51%; in [1] it was 5%. For the same compound, in [2], the Ki turned out to be 431 nM.
Consider `CCOc1ccc2[nH]cc(C3=CCN(Cc4ccc(OC)cc4)CC3)c2c1`, for which, in [1], the inhibition worked out at 38%. Besides, the Ki in [2] was found to be 194 nM; in [3], 132 nM.
`CC(C)Oc1ccc2[nH]cc(C3=CCN(Cc4ccccc4)CC3)c2c1` registered an inhibition in data set [1] of 32%. Also, the Ki was found to be 203 nM in data set [2] and 321 nM in data set [3].
Regarding `COc1ccc2[nH]cc(C3=CCN(Cc4cc(=O)[nH]c5ccccc45)CC3)c2c1`, the Ki in data set [18] turned out to be 58 nM; in data set [19] it was 614 nM; in data set [20] it was 125 nM; in data set [21], 358 nM; in data set [22], 148 nM.
Consider `COc1cccc(CN2CC=C(c3c[nH]c4ccccc34)CC2)c1`, for which the Selectivity ratio in data set [5] worked out at 200. The Kb in data set [6] was found to be 803 nM; in [10], 4.95 nM. The Ki in data set [4] is 194 nM; in [2], 243 nM; in data set [3] it was 26.9 nM. The result in data set [8] was inactive. For the same compound, in [9], the Emax was 76%. The Activity entry in [10] and in data set [11] was “Dose-dependent effect” throughout. In data set [10], the pKb came out at 8.31. Besides, the midpoint of inhibition in data set [16], the IC50, lay at 7980 nM.
